Assays:
[1] = system: LMCD1 transfectants in SK-Hep1 cells; experiment: Lamellipodia formation (Arp3 staining, cell morphology) in LMCD1 transfectants; type: cell-based, human; conditions: LMCD1-E135K and LMCD1-K237R cells
Description: Coverslips were mounted on slides using […] mounting medium with DAPI (Vector Laboratories).

[2] = system: LMCD1 transfectants in SK-Hep1 cells; experiment: Wound healing assay in LMCD1 stable transfectants of SK-Hep1 cells; conditions: dose dependent
Method: To test the hypothesis that LMCD1 mutants play a role in cell migration regulation, three different cell migration assays for reflecting alteration of directed migration, random migration, and chemotaxis were performed. Directed migration of these SK-Hep1 transfectants was inspected by wound healing assay. For the wound healing assay, cells were seeded in a 6-well plate at a confluent density and cultured overnight to grow into a monolayer. The culture was scratched with a p200 pipette tip, and the wound was allowed to close for 20 hours. The average reduction of distance between two wound edges was calculated to evaluate the rate of wound closure. […] Cells were photographed immediately after wounding (FIG. 7a upper) and 2 hours after wounding (FIG. 7a lower), with arrows indicating protrusion of cells at the wound edge. […] Images were obtained using an Olympus BX51 fluorescence microscope or a PerkinElmer Ultra View confocal microscope (PerkinElmer Life Sciences).
The bar graph to the right of the images in FIG. 4c provides quantification of average migration results, normalized to the mock cells (±SEM).

[3] = system: Rac1 interaction with Rac1-specific GEFs TrioN, GEF-H1 and Tiam1; conditions: cited from earlier work
[4] = system: LMCD1-K237R; experiment: LMCD1-K237R expression in PLC/PRF/5 cells by reverse-transcription PCR; type: cell-based, human; conditions: 10 nM 17β-estradiol
Method: Five independent pLKO.1 lentiviral-based shRNA clones targeting human LMCD1 (NM_014583) from The RNAi Consortium (TRC) library were tested. […] Human shRNA for RAC1 (shRac1) was also obtained from TRC library with number TRCN0000004870: 5′-[…]-3′. pLKO.1-shLuc was used as control. To generate shRNA lentiviral particles, HEK293T cells were co-transfected with a plasmid mixture (pLKO.1-puro-shRNA, pCMVΔR8.91 packaging plasmid, and pMD.G envelope plasmid) by calcium phosphate protocol. Cell medium containing viral particles was collected three times at 24-hour intervals after transfection. The virus-containing medium was aliquoted and used to infect cells or stored at −80° C. until use. Ninety-six hours after infection, cells were subjected to further experimental assays or harvested for LMCD1 or Rac1 gene expression analysis by RT-PCR or Western blotting.
(§1) Trans-well migration assays were performed as in Example 3. Expression of LMCD1-K237R in PLC/PRF/5 cells (1×10^5 cells) was induced by exposure to 10 nM 17β-estradiol. Results are provided in FIG. 4d, with some cells also being treated with the indicated shRNA. Images in FIG. 4d are representative of migration results from three independent experiments, with (+E2) and without (−E2) estradiol treatment. The migration results are quantified by bar graph in FIG. 4e (±SEM). […]

[5] = system: PLC/PRF/5 cells; experiment: Trans-well migration assay in PLC/PRF/5 cells; type: cell-based, human; conditions: 10 nM 17β-estradiol, 24 hours
Method: For trans-well assay, 1×10^4 cells resuspended in serum-free medium were seeded into the upper chamber of an insert with an 8.0-μm pore size of polycarbonate membrane (BD Biosciences) and then placed into the bottom chamber containing 10% FBS as chemoattractant. Cells were allowed to migrate for 24 hours followed by methanol fixation and Giemsa staining (MERCK Darmstadt, Germany). Un-migrated cells on the membrane apical side were removed. Migrated cells were photographed with a phase contrast microscope and the number was counted by using Image-Pro Plus software. All experiments were performed in triplicates. […] Images in the top panel of FIG. 3e are representative of three independent experiments performed in triplicate. Quantification of average migrated cell number is shown in bar graphs below the images (±SEM).
as §1

CCN(CC)CCCC(C)Nc1nc(C)cc(Nc2ccc3nc(C)cc(N)c3c2)n1 (centres unmarked) [NSC23766]
lamellipodia extension [1]: inhibited lamellipodia extension
cell mobility (wound closure) [2]: decreased

Rac1 Inhibitor W56: peptide comprising residues 45-60 of the guanine nucleotide exchange factor (GEF) recognition/activation site of Rac1 (MVDGKPVNLGLWDTAG; UniProt P63000 45-60, looked up, fragment)
inhibition of Rac1 interaction with Rac1-specific GEFs TrioN, GEF-H1 and Tiam1 [3]: selectively inhibits

C[C@]12CC[C@@H]3c4ccc(O)cc4CC[C@H]3[C@@H]1CC[C@@H]2O [estrogen, 17β-estradiol]
expression of LMCD1-K237R [4]: up-regulate
cell migration [5]: up-regulate

— US20130239239A1, “LMCD1 CANCER MARKERS AND METHODS FOR THEIR USE” (Academia Sinica, priority 2012, published 2013)
